From patent US9469615B2, “Quinoxalines and AZA-quinoxalines as CRTH2 receptor modulators” (Merck Sharp & Dohme Corp., priority 2010, dated 2016)

These compounds were tested against T1, hCRTH2 (Homo sapiens, UniProt Q9Y5Y4) (assay: Radioligand binding assay ([3H]PGD2 competition, HEK-hCRTH2 membranes)). Conditions: [3H]PGD2 binding, rated A-E (Table A).
T1 construct: expressed in transfected cells; host or cells: HEK (human embryonic kidney) cells expressing hCRTH2; membrane preparation
T1 sequence (Q9Y5Y4 1-395): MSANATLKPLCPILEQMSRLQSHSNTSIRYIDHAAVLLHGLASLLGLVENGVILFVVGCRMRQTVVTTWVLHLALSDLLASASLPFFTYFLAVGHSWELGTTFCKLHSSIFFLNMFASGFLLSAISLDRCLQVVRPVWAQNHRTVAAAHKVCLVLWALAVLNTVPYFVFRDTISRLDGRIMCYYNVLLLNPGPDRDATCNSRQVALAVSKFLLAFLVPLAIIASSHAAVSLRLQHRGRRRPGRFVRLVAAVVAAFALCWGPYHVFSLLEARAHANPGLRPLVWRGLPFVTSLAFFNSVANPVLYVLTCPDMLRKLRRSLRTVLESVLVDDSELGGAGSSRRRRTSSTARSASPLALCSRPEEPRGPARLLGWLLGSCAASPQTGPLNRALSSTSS
Summary of the method: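 Filter-bound radioactivity was counted by scintillation after 60 min incubations at room temperature. Membranes (8-20 μg) from HEK cells expressing hCRTH2 competed test ligands against 3.0 nM [3H]PGD2 in Tris-HCl pH 7.4 buffer with EDTA and 2 mM MnCl2; 10 μM PGD2 set non-specific binding.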

Ki [nM]	SMILES
2.1 to 20	O=C(O)C1CC1CCc1nc2cc(C(=O)N3CCC(c4ccccc4)CC3)ccc2nc1-c1ccccc1 (single isomer, unassigned) [20F, 2-(2-(3-phenyl-7-(4-phenylpiperidine-1-carbonyl)quinoxaline-2-yl)ethyl)cyclopropanecarboxylic acid]
0.1 to 2	O=C(O)CCCCc1nc2cc(C(=O)NC(c3ccc(F)cc3)C(F)(F)F)ccc2nc1-c1ccccc1 (centres unmarked) [15Q, 5-(3-phenyl-7-{[2,2,2-trifluoro-1-(4-fluoro-phenyl)ethyl]carbamoyl}-quinoxalin-2-yl)pentanoic acid]
0.1 to 2	O=C(O)CCCCc1nc2cc(C(=O)NCc3ccc(Cl)cc3)ccc2nc1-c1ccccc1 [15T, 5-{7-[(4-chlorobenzyl)-carbamoyl]-3-phenyl-quinoxalin-2-yl} pentanoic acid]
2.1 to 20	O=C(O)CCCCc1nc2cc(C(=O)N3CC[C@@H](c4ccccc4)C3)c(F)cc2nc1-c1ccccc1 [24i, 6-fluoro-3-phenyl-7-[(3(S)-phenyl-1-pyrrolidinyl)carbonyl]-2-quinoxalinepentanoic acid]
2.1 to 20	C[C@H](NC(=O)c1ccc2nc(-c3ccccc3)c(CCCCC(=O)O)nc2c1)c1ccc(Cl)cc1 [15BM, 5-(7-{[(1S)-1-(4-chlorophenyl)ethyl]carbamoyl}-3-phenylquinoxalin-2-yl)pentanoic acid]
0.1 to 2	COc1ccc(-c2nc3ccc(C(=O)N[C@H](C)c4ccc(F)cc4)cc3nc2CCCCC(=O)O)cc1 [compound 214, 7-[[[1(R)-(4-fluorophenyl)ethyl]amino]carbonyl]-3-(4-methoxyphenyl)-2-quinoxalinepentanoic acid]
2.1 to 20	O=C(O)CCCCc1nc2cc(C(=O)NCc3cccnc3)ccc2nc1-c1ccc(C(F)(F)F)cc1 [3AD]
2.1 to 20	C[C@H](NC(=O)c1ccc2nc(-c3ccc(F)cc3)c(CCCCC(=O)O)nc2c1)c1ccccc1 [compound 133, 3-(4-fluorophenyl)-7-[[(1(S)-phenylethyl)amino]carbonyl]-2-quinoxalinepentanoic acid]
2.1 to 20	O=C(O)CCCCc1nc2cc(C(=O)N[C@H]3CCCc4cc(Cl)ccc43)ccc2nc1-c1ccc(F)cc1 [compound 222, 7-[[(6-chloro-1,2,3,4-tetrahydro-1(S)-naphthalenyl)amino]carbonyl]-3-(4-fluorophenyl)-2-quinoxalinepentanoic acid]

Second part, the compound before the results:

SMILES	Ki [nM]
N#Cc1cccc(C2CN(C(=O)c3ccc4nc(-c5ccccc5)c(CCCCC(=O)O)nc4c3)C2)c1 [compound 175, 7-[[3-(3-cyanophenyl)-1-azetidinyl]carbonyl]-3-phenyl-2-quinoxalinepentanoic acid]	2.1 to 20
CC(CCCc1nc2cc(C(=O)NCc3cccc(F)c3)ccc2nc1-c1ccc(Cl)cc1)C(=O)O (stereo not drawn) [compound 160, 3-(4-chlorophenyl)-7-[[[(3-fluorophenyl)methyl]amino]carbonyl]-alpha-methyl-2-quinoxalinepentanoic acid]	2.1 to 20
O=C(O)CCCCc1nc2cc(C(=O)N[C@@H]3CCCc4cc(Cl)ccc43)ccc2nc1-c1ccc(F)cc1 [compound 221, 7-[[(6-chloro-1,2,3,4-tetrahydro-1(R)-naphthalenyl)amino]carbonyl]-3-(4-fluorophenyl)-2-quinoxalinepentanoic acid]	0.1 to 2
CC(CCCc1nc2cc(C(=O)NCc3cccc(Cl)c3)ccc2nc1-c1ccc(C(F)(F)F)cc1)C(=O)O (stereo not drawn) [18D, 7-[[[(3-chlorophenyl)methyl]amino]carbonyl]-alpha-nethyl-3-[4-(trifluoromethyl)phenyl]-2-quinoxalinepentanoic acid]	2.1 to 20
O=C(O)CCCCc1nc2cc(C(=O)N3CCC4(CC3)C(=O)NCN4c3ccccc3)ccc2nc1-c1ccc(F)cc1 [compound 126, 3-(4-fluorophenyl)-7-[(4-oxo-1-phenyl-1,3,8-triazaspiro[4.5]dec-8-yl)carbonyl]-2-quinoxalinepentanoic acid]	2.1 to 20

Same assay, conditions: [3H]PGD2 competition, Table B

Ki [nM]	SMILES
2.1 to 20	O=C(O)CCCCc1nc2cc(C(=O)NC3NC(=O)c4ccccc43)ccc2nc1-c1ccc(Cl)cc1 (centres unmarked) [compound 319, 5-(3-(4-chlorophenyl)-7((3-oxoisoindolin-1-yl)carbamoyl)quinoxalin-2-yl)pentanoic acid]
2.1 to 20	O=C(O)CCCCc1nc2cc(C(=O)N3CCN(Cc4cccc(F)c4)CC3)ccc2nc1-c1ccc(Cl)cc1 [compound 667, 5-(3-(4-chlorophenyl)-7-(4-(3-fluorobenzyl)piperazine-1-carbonyl)quinoxalin-2-yl)pentanoic acid]
2.1 to 20	O=C(O)CCCCc1nc2cc(C(=O)N3CCC(n4cncn4)CC3)ccc2nc1-c1ccc(Cl)cc1 [compound 341, 5-(7-(4-(1H-1,2,4-triazol-yl)piperidine-1-carbonyl)-3-(4-chlorophenyl)quinoxalin-2-yl)pentanoic acid]
2.1 to 20	O=C(N[C@@H]1CCc2cc(F)ccc21)c1ccc2nc(-c3ccccc3)c(CCCC(F)(F)C(=O)O)nc2c1 [compound 468, (R)-2,2-difluoro-5-(7-((5-fluoro-2,3-dihydro-1H-inden-1-yl)carbamoyl)-3-phenylquinoxalin-2-yl)pentanoic acid]
2.1 to 20	O=C(O)CCCCc1nc2cc(C(=O)NC3CCCc4cnccc43)ccc2nc1-c1ccccc1 (centres unmarked) [compound 505, 5-(3-phenyl-7-((5,6,7,8-tetrahydroisoquinolin-5-yl)carbamoyl)quinoxalin-2-yl)pentanoic acid]
2.1 to 20	O=C(O)CCCCc1nc2cc(C(=O)N3CCC4(CC3)COc3ccccc34)ccc2nc1-c1ccc(Cl)cc1 [compound 343, 5-(3--(4-chlorophenyl)-7-(2H-spiro[benzofuran-3,4′-piperidin]-1′-ylcarbonyl)quinoxalin-2-yl)pentanoic acid]

Further lines, the compound ahead of its results:

SMILES	Ki [nM]
Cc1ccccc1N1CCN(C(=O)c2ccc3nc(-c4ccc(Cl)cc4)c(CCCCC(=O)O)nc3c2)CC1 [compound 619, 5-(3-(4-chlorophenyl)-7-(4-(o-tolyl)piperazine-1-carbonyl)quinoxalin-2-yl)pentanoic acid]	0.1 to 2
O=C(O)CCCCc1nc2cc(C(=O)N[C@@H]3CCCc4cc(Cl)ccc43)ccc2nc1-c1ccccc1 [compound 386, (R)-5-(7-((6-chloro-1,2,3,4-tetrahydronaphthalen-1-yl)carbamoyl)-3-phenylquinoxalin-2-yl)pentanoic acid]	0.1 to 2
O=C(O)CCCCc1nc2cc(C(=O)N[C@@H]3CCSc4ccccc43)ccc2nc1-c1ccc(F)cc1 [compound 355, (R)-5-(3-(4-fluorophenyl)-7-(thiochroman-4-ylcarbamoyl)quinoxalin-2-yl)pentanoic acid]	2.1 to 20
C[C@@H](NC(=O)c1ccc2nc(-c3ccc(Cl)cc3Cl)c(CCCCC(=O)O)nc2c1)c1ccc(F)cc1 [compound 416, (R)-5-(3-(2,4-dichlorophenyl)-7-((1-(4-fluorophenyl)ethyl)carbamoyl)quinoxalin-2-yl)pentanoic acid]	2.1 to 20
CN(C)c1cccc(-c2nc3ccc(C(=O)N[C@@H]4CCCc5ccccc54)cc3nc2CCCCC(=O)O)c1 [compound 330, (R)-5-(3-(3-(dimethylamino)phenyl)-7-((1,2,3,4-tetrahydronaphthalen-1-yl)carbamoyl)quinoxalin-2-yl)pentanoic acid]	2.1 to 20
N#Cc1ccccc1N1CCN(C(=O)c2ccc3nc(-c4ccc(F)cc4)c(CCCCC(=O)O)nc3c2)CC1 [compound 359, 5-(7-(4-(2-cyanophenyl)piperazine-1-carbonyl)-3-(4-fluorophenyl)quinoxalin-2-yl)pentanoic acid]	2.1 to 20
